Like-named read-outs stand apart in the source and are kept apart here.
Legend:
[1] = target: T1, glucagon receptor (GCGR) overexpressed CHO-K1 cells or human primary hepatocytes (Homo sapiens, UniProt P47871); assay: Glucagon cAMP inhibition assay (Cisbio cAMP Dynamic 2 HTRF); assay type: cell-based
T1 construct: expressed in transfected cells; host or cells: GCGR overexpressed CHO-K1 cells or human primary hepatocytes (endogenous receptor)
Summary of the method: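 HTRF read-out of glucagon-induced cAMP, with IC50 from non-linear regression. Cells (GCGR CHO-K1 or human primary hepatocytes) in HBSS/0.1% BSA/800 nM IBMX took compound dilutions for 30 min (final DMSO 1%), then EC50-level glucagon for 30 min at room temperature, then a 60 min lysis/detection step.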

glucagon receptor (GCGR) = target: T2, glucagon receptor (GCGR) (Homo sapiens, UniProt P47871); assay: I125-glucagon binding assay (competition, GCGR membrane fractions)
T2 construct: expressed in transfected cells; host or cells: CHO-K1 cells overexpressing GCGR (membrane fractions)
T2 sequence (P47871 26-477): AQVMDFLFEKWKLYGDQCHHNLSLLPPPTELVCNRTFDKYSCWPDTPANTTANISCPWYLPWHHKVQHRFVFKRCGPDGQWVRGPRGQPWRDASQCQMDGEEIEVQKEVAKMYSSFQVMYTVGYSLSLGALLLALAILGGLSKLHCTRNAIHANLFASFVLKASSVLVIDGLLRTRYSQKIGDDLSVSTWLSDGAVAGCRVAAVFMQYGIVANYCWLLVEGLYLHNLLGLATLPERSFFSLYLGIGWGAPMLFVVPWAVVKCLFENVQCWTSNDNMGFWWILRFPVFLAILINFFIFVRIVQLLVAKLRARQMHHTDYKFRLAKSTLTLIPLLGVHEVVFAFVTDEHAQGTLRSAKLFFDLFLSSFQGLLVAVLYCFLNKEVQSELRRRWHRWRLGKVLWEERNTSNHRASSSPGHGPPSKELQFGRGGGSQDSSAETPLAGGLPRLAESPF
Summary of the method: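 Competition of 0.0625 nM (final) I^125-glucagon for 30 min at 25° C, after 5 min compound preincubation, using 7.5 μg/well GCGR-overexpressing CHO-K1 membranes in 50 mM Tris pH 7.4, 0.5% BSA. Filtration onto PEI-coated GF/B, micro-beta counting, and non-linear regression gave IC50.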

[2] = inhibition of glucagon (EC50 concentration) induced cAMP production
[3] = competition with I125-glucagon 0.0625 nM, membrane fractions of GCGR overexpressed CHO-K1 cells

T1 sequence (P47871 26-477): as above

Compound	IC50 cAMP ([1]; uM)	IC50 (glucagon receptor (GCGR))	IC50 cAMP [1, 2]	IC50 (glucagon receptor (GCGR); [3])	IC50 cAMP [1]
O=C(O)CCNC(=O)c1ccc(N[C@@H](Cc2ccccc2)C(=O)Nc2ccc(C(F)(F)F)cc2)cc1 [Compound 24-6, (S)-3-(4-((1-oxo-3-phenyl-1-((4-(trifluoromethyl)phenyl)amino)propan-2-yl)amino)benzamido)propanoic Acid]	>10 µM	7400 nM			
CC[C@H](C)[C@@H](COc1ccc(-c2ccc(Cl)cc2Cl)cc1)Nc1ccc(C(=O)NCCC(=O)O)cc1 [Compound 1-7, 3-(4-(((2S,3S)-1-((2′,4′-dichloro-[1,1′-biphenyl]-4-yl)oxy)-3-methylpentan-2-yl)amino)benzamido)propanoic Acid]			0.4948 µM	139 nM	
CC(C)(C)c1ccc(NC(=O)[C@H](Cc2cccc3ccccc23)Nc2ccc(C(=O)NCCC(=O)O)cc2)cc1 [Compound 23-18, (S)-3-(4-((1-((4-(tert-butyl)phenyl)amino)-3-(naphthalen-1-yl)-1-oxopropan-2-yl)amino)benzamido)propanoic Acid]		1870 nM			4.7 µM
CC(C)COC[C@@H](Cc1ccc(-c2ccc(OC(F)(F)F)cc2)cc1)Nc1ccc(C(=O)NCCC(=O)O)cc1 [Compound 19-19, (R)-3-(4-((1-isobutoxy-3-(4′-(trifluoromethoxy)-[1,1′-biphenyl]-4-yl)propan-2-yl)amino)benzamido)propanoic Acid]		317 nM			0.5825 µM
CCCOC[C@H](Cc1ccc(-c2cc3ccccc3[nH]2)cc1)Nc1ccc(C(=O)NCCC(=O)O)cc1 [Compound 19-27, (S)-3-(4-((1-(4-(1H-indol-2-yl)phenyl)-3-propoxypropan-2-yl)amino)benzamido)propanoic Acid]		455 nM			4.952 µM
CC(C)[C@H](COc1ccc(-c2ccc(C(F)(F)F)cc2Cl)cc1)Nc1ccc(C(=O)NCCC(=O)O)cc1 [Compound 1-35]			0.2093 µM	145 nM	
CC(C)[C@@H](COc1ccc(-c2ccc(F)cc2F)nn1)Nc1ccc(C(=O)NCCC(=O)O)cc1 [Compound 17-11, (S)-3-(4-((1-((6-(2,4-difluorophenyl)pyridazin-3-yl)oxy)-3-methylbutan-2-yl)amino)benzamido)propanoic Acid]			>30 µM	1010 nM	
CC(C)[C@@H](COc1ccc(-c2ccc(C(F)(F)F)cc2Cl)c(Cl)c1)Nc1ccc(C(=O)NCCC(=O)O)cc1 [Compound 3-4, (S)-3-(4-((1-((2,2′-dichloro-4′-(trifluoromethyl)-[1,1′-biphenyl]-4-yl)oxy)-3-methylbutan-2-yl)amino)benzamido)propanoic Acid]			0.3136 µM	17 nM	
CCCC[C@@H](COc1ccc(-c2ccc(C(F)(F)F)cc2)c(F)c1)Nc1ccc(C(=O)NCCC(=O)O)cc1 [Compound 8-18, (S)-3-(4-((1-((2-fluoro-4′-(trifluoromethyl)-[1,1′-biphenyl]-4-yl)oxy)hexan-2-yl)amino)benzamido)propanoic Acid]			0.1535 µM	158 nM	
CC(C)C[C@@H](COc1cc(F)c(-c2ccc(C(F)(F)F)cc2)c(F)c1)Nc1ccc(C(=O)NCCC(=O)O)cn1 [Compound 9-4, (S)-3-(6-((1-((2,6-difluoro-4′-(trifluoromethyl)-[1,1′-biphenyl]-4-yl)oxy)-4-methylpentan-2-yl)amino)nicotinamido)propanoic Acid]			2.3 µM	1670 nM	
CCCC[C@@H](COc1ccc(-c2ccc(C(F)(F)F)cc2Cl)c(Cl)c1)Nc1ccc(C(=O)NCCC(=O)O)cc1 [Compound 3-8, (S)-3-(4-((1-((2,2′-dichloro-4′-(trifluoromethyl)-[1,1′-biphenyl]-4-yl)oxy)hexan-2-yl)amino)benzamido)propanoic Acid]			0.035 µM	26 nM	
CCC(C)[C@@H](COc1ccc(-c2nnc(C(F)(F)F)o2)cc1)Nc1ccc(C(=O)NCCC(=O)O)cc1 (stereo partly shown) [Compound 1-44, 3-(4-((3-methyl-1-(4-(5-(trifluoromethyl)-1,3,4-oxadiazol-2-yl)phenoxy)pentan-2-yl)amino)benzamido)propanoic Acid]			10 µM	388 nM	
CC[C@H](C)[C@@H](COc1ccc(-c2cc3ccccc3o2)cc1)Nc1ccc(C(=O)NCc2nnn[nH]2)cc1 [Compound 1-8]			3.305 µM	98 nM	
CC(C)[C@@H](COc1ccc(-c2ccc(C(F)(F)F)cc2F)cc1)Nc1ccc(C(=O)NCCS(=O)(=O)O)cc1 [Compound 1-33, (S)-2-(4-((1-((2′-fluoro-4′-(trifluoromethyl)-[1,1′-biphenyl]-4-yl)oxy)-3-methylbutan-2-yl)amino)benzamido)ethane-1-sulfonic Acid]			3.767 µM	1900 nM	
CC(C)COC[C@@H](Cc1ccc(-c2ccc(C(F)(F)F)cc2)cc1)Nc1ccc(C(=O)NCCC(=O)O)cc1 [Compound 19-18]		688 nM			0.9168 µM
CCOC(=O)CCNC(=O)c1ccc(N[C@@H](COc2ccc(-c3nc4ccccc4o3)cc2)C(C)C)cc1 [Compound 1-53]			0.09 µM	24500 nM	
CC(C)C[C@@H](COc1ccc(-c2ccc(C(F)(F)F)cc2Cl)cn1)Nc1ccc(C(=O)NCCC(=O)O)cc1 [Compound 15-10, (S)-3-(4-((1-((5-(2-chloro-4-(trifluoromethyl)phenyl)pyridin-2-yl)oxy)-4-methylpentan-2-yl)amino)benzamido)propanoic Acid]		80 nM			0.1984 µM
CCCC[C@@H](COc1nnc(-c2ccc(C(F)(F)F)cc2)o1)Nc1ccc(C(=O)NCCC(=O)O)cc1 [Compound 22-5, (S)-3-(4-((1-((5-(4-(trifluoromethyl)phenyl)-1,3,4-oxadiazol-2-yl)oxy)hexan-2-yl)amino)benzamido)propanoic Acid]		> 30000 nM			>30 µM
CC[C@H](C)[C@@H](COc1ccc(-c2ccc(C(F)(F)F)cc2F)c(OC)c1)Nc1ccc(C(=O)NCCC(=O)O)cc1 [Compound 13-4]			0.131 µM	68 nM	
CC(C)[C@@H](CSc1ccc(-c2cc3ccccc3o2)cc1)Nc1ccc(C(=O)NCCC(=O)O)cc1 [Compound 5-1, (S)-3-(4-((1-((4-(benzofuran-2-yl)phenyl)thio)-3-methylbutan-2-yl)amino)benzamido)propanoic Acid]			14.405 µM	2040 nM	
Cc1cc(C)c(-c2ccc(NC(=O)[C@H](Cc3ccccc3)Nc3ccc(C(=O)NCCC(=O)O)cc3)cc2)c(C)c1 [Compound 23-3, (S)-3-(4-((1-oxo-3-phenyl-1-((2′,4′,6′-trimethyl-[1,1′-biphenyl]-4-yl)amino)propan-2-yl)amino)benzamido)propanoic Acid]		388 nM			5.8 µM
Cc1nc(OC[C@H](CC(C)C)Nc2ccc(C(=O)NCCC(=O)O)cc2)ccc1-c1cc2ccccc2o1 [Compound 18-9, (S)-3-(4-((1-((5-(benzofuran-2-yl)-6-methylpyridin-2-yl)oxy)-4-methylpentan-2-yl)amino)benzamido)propanoic Acid]		207 nM			0.4299 µM
CC(C)COC[C@@H](Cc1ccc(-c2ccc(Cl)cc2Cl)cc1)Nc1ccc(C(=O)NCCC(=O)O)cc1 [Compound 19-20, (R)-3-(4-((1-(2′,4′-dichloro-[1,1′-biphenyl]-4-yl)-3-isobutoxypropan-2-yl)amino)benzamido)propanoic Acid]		1150 nM			0.8224 µM
CC(C)[C@@H](COc1ccc(-c2ccc(C(F)(F)F)cc2F)c(F)c1)Nc1ccc(C(=O)NCCC(=O)O)cc1 [Compound 8-1, (S)-3-(4-((1-((2,2′-difluoro-4′-(trifluoromethyl)-[1,1′-biphenyl]-4-yl)oxy)-3-methylbutan-2-yl)amino)benzamido)propanoic Acid]			0.0619 µM	112 nM	
CCOC(=O)CCNC(=O)c1ccc(N[C@H](C(=O)Nc2ccc(-c3cc4ccccc4o3)cc2)[C@@H](C)CC)cc1 [Compound 23-30]		1480 nM			0.0252 µM
CC(C)(C)c1nnc(-c2ccc(OC[C@@H](Nc3ccc(C(=O)NCCC(=O)O)cc3)c3ccc(-c4ccc(C(F)(F)F)cc4F)cc3)nc2)o1 [Compound 15-32, (S)-3-(4-((2-((5-(5-(tert-butyl)-1,3,4-oxadiazol-2-yl)pyridin-2-yl)oxy)-1-(2′-fluoro-4′-(trifluoromethyl)-[1,1′-biphenyl]-4-yl)ethyl)amino)benzamido)propanoic Acid]		151 nM			0.809 µM
CC(C)[C@@H](COc1ccc(-c2nnc(C(F)(F)F)o2)cc1)Nc1ccc(C(=O)NCCC(=O)O)cc1 [Compound 1-43, 3-(4-((3-methyl-1-(4-(5-(trifluoromethyl)-1,3,4-oxadiazol-2-yl)phenoxy)butan-2-yl)amino)benzamido)propanoic Acid]			>30 µM	583 nM	
CCOC[C@@H](COc1ccc(-c2cc3ccccc3o2)cc1)Nc1ccc(C(=O)NCCC(=O)O)cc1 [Compound 6-3, (S)-3-(4-((1-(4-(benzofuran-2-yl)phenoxy)-3-ethoxypropan-2-yl)amino)benzamido)propanoic Acid]			3.859 µM	479 nM	
CCCOC[C@H](Cc1ccc(-c2ccc(C(F)(F)F)cc2)cc1)Nc1ccc(C(=O)NCCC(=O)O)cc1 [Compound 19-13, (S)-3-(4-((1-propoxy-3-(4′-(trifluoromethyl)-[1,1′-biphenyl]-4-yl)propan-2-yl)amino)benzamido)propanoic Acid]		621 nM			0.74 µM

Source: patent US11384060B2, “Amide compounds and use thereof” (ALPHALA CO., LTD., priority 2017, dated 2022)
